Assay results: the supplement of paper PMC13380429

Experiments:
[1] = test system: A549-ACE2 infected with SARS-CoV-2; assay: cell count relative to DMSO; higher = less toxic; details: 24 h
[2] = test system: Caco-2; assay: cell viability relative to DMSO; higher = less toxic; details: 72 h
[3] = test system: Calu-3; assay: as above; details: 72 h
[4] = test system: HepG2; assay: as above; details: 72 h
[5] = test system: U2OS; assay: as above; details: 72 h
[6] = test system: Vero E6; assay: as above; details: 72 h
[7] = test system: A549-ACE2 infected with SARS-CoV-2; assay: SARS-CoV-2 infection rate relative to DMSO; higher = more infection; details: 24 h
[8] = test system: A549-ACE2; assay: phospholipidosis EC50; higher = less potent phospholipidosis inducer
[9] = test system: A549-ACE2; assay: drug-induced phospholipidosis relative to tamoxifen; higher = more phospholipidosis
[10] = test system: A549-ACE2 infected with SARS-CoV-2; assay: morphology score (similarity to uninfected cells); higher = more like uninfected cells; details: 24 h
[11] = test system: Caco-2; assay: relative viability EC50 (midpoint between 100% and the lowest measured viability); higher = less toxic; details: 72 h
[12] = test system: Calu-3; assay: as above; details: 72 h
[13] = test system: U2OS; assay: as above; details: 72 h
[14] = test system: Vero E6; assay: as above; details: 72 h
[15] = test system: Caco-2; assay: drug sensitivity score (DSS) for viability; higher = more toxic; extreme values may be limits of the assay; details: 72 h
[16] = test system: Calu-3; assay: as above; details: 72 h
[17] = test system: HepG2; assay: as above; details: 72 h
[18] = test system: U2OS; assay: as above; details: 72 h
[19] = test system: Vero E6; assay: as above; details: 72 h
[20] = test system: HepG2; assay: relative viability EC50 (midpoint between 100% and the lowest measured viability); higher = less toxic; details: 72 h

CC(Cc1ccccc1)NCCC(c1ccccc1)c1ccccc1 (stereo not drawn) [prenylamine]
Details	SARS-CoV-2 infection rate [%]	cell count [%]	cell viability [%]	morphology score	phospholipidosis EC50 [µM]
[1], 0.3 µM	–	103	–	–	–
[1], 3 µM	–	119	–	–	–
[1], 10 µM	–	123	–	–	–
[1], 30 µM	–	19	–	–	–
[2], 1 nM	–	–	112	–	–
[2], 10 nM	–	–	101	–	–
[2], 100 nM	–	–	93.6	–	–
[2], 1000 nM	–	–	100	–	–
[2], 10000 nM	–	–	87.1	–	–
[3], 1 nM	–	–	103	–	–
[3], 10 nM	–	–	106	–	–
[3], 100 nM	–	–	95.3	–	–
[3], 1000 nM	–	–	106	–	–
[3], 10000 nM	–	–	17.9	–	–
[4], 1 nM	–	–	110	–	–
[4], 10 nM	–	–	110	–	–
[4], 100 nM	–	–	101	–	–
[4], 1000 nM	–	–	107	–	–
[4], 10000 nM	–	–	64.5	–	–
[5], 1 nM	–	–	97.2	–	–
[5], 10 nM	–	–	94.7	–	–
[5], 100 nM	–	–	97.3	–	–
[5], 1000 nM	–	–	100	–	–
[5], 10000 nM	–	–	85.7	–	–
[6], 1 nM	–	–	103	–	–
[6], 10 nM	–	–	110	–	–
[6], 100 nM	–	–	102	–	–
[6], 1000 nM	–	–	102	–	–
[6], 10000 nM	–	–	89.3	–	–
[7], 0.3 µM	108	–	–	–	–
[7], 3 µM	47	–	–	–	–
[7], 10 µM	6	–	–	–	–
[7], 30 µM	43	–	–	–	–
[8], 24 h	–	–	–	–	3.65
[8], 48 h	–	–	–	–	4.62
[8], 72 h	–	–	–	–	6.27
[10], 0.3 µM	–	–	–	-0.03	–
[10], 3 µM	–	–	–	0.78	–
[10], 10 µM	–	–	–	0.92	–
[10], 30 µM	–	–	–	-0.09	–

drug-induced phospholipidosis [%], [9]
Details	0.3 µM	0.833333 µM	3.33333 µM	6.66667 µM	10 µM
24 h	2.14	1.61	44.8	88.2	97.4
48 h	3.35	0.12	33.5	85	103
72 h	3.19	2.37	29.7	74.3	100

Details	drug sensitivity score	relative viability EC50 [µM]
[11]	–	> 10
[12]	–	3.51
[13]	–	> 10
[14]	–	> 10
[15]	0.1	–
[16]	4.1	–
[17]	1.3	–
[18]	0.2	–
[19]	0	–

CCCCCCCCCCC(O)C1C=CC2C(=O)N(c3ccccc3)C(=O)C2N1Nc1ccc([N+](=O)[O-])cc1 (stereo not drawn) [A12B4C3]
Details	SARS-CoV-2 infection rate, [7] [%]	cell count, [1] [%]	cell viability, [2] [%]	cell viability, [3] [%]	cell viability, [4] [%]	cell viability, [5] [%]	cell viability, [6] [%]	morphology score, [10]
1 nM	–	–	96.6	98.9	96.9	97.8	93.1	–
10 nM	–	–	99	104	91.2	104	99.9	–
100 nM	–	–	85.9	98.4	99.2	95.5	98.3	–
0.3 µM	92	107	–	–	–	–	–	0.31
1000 nM	–	–	90	96.2	102	99	106	–
3 µM	95	105	–	–	–	–	–	0.4
10 µM	68	110	–	–	–	–	–	0.65
10000 nM	–	–	92	95.6	97.7	89	102	–
30 µM	37	104	–	–	–	–	–	0.6

drug-induced phospholipidosis [%], [9]
Details	0.3 µM	0.833333 µM	3.33333 µM	6.66667 µM	10 µM	30 µM
24 h	-2.18	-1.14	-1.42	-1.07	-2.23	12.3
48 h	0.96	-1.02	1.8	1.83	2.36	7.09
72 h	1.78	0.183	1.98	2.85	2.51	10.2

Details	drug sensitivity score	relative viability EC50 [µM]
[11]	–	> 10
[12]	–	> 10
[13]	–	> 10
[14]	–	> 10
[15]	0.2	–
[16]	0	–
[17]	0	–
[18]	0	–
[19]	0	–
[20]	–	> 10

O=C1/C(=C/c2ccccc2)C[C@@]2(O)[C@H]3Cc4ccc(O)c5c4[C@@]2(CCN3CC2CC2)[C@H]1O5 [BNTX]
Details	SARS-CoV-2 infection rate, [7] [%]	cell count, [1] [%]	cell viability, [2] [%]	cell viability, [3] [%]	cell viability, [4] [%]	cell viability, [5] [%]	cell viability, [6] [%]	morphology score, [10]
1 nM	–	–	100	99.5	98.3	99.5	105	–
10 nM	–	–	101	95.6	99.3	102	102	–
0.1 µM	94	101	–	–	–	–	–	0.09
100 nM	–	–	91.2	102	110	95.4	103	–
0.3 µM	93	106	–	–	–	–	–	0.34
1 µM	59	108	–	–	–	–	–	0.64
1000 nM	–	–	93.8	109	84.2	97.5	96.2	–
3 µM	11	89	–	–	–	–	–	0.68
10000 nM	–	–	30	13.1	0.5	5.7	0.4	–

drug-induced phospholipidosis [%], [9]
Details	0.3 µM	0.833333 µM	3.33333 µM	6.66667 µM
24 h	0.73	2.81	24.9	20.5
48 h	0.39	0.51	26	–
72 h	2.04	0.605	–	–

Details	drug sensitivity score	relative viability EC50 [µM]
[11]	–	2.43
[12]	–	3.66
[13]	–	2.97
[14]	–	2.88
[15]	4.9	–
[16]	4.2	–
[17]	8.1	–
[18]	5.6	–
[19]	6.1	–
[20]	–	1.94

C=CC(=O)Nc1cccc(C)c1Nc1ncc2cc(-c3c(Cl)c(OC)cc(OC)c3Cl)ccc2n1 [BLU9931]
Details	SARS-CoV-2 infection rate, [7] [%]	cell count, [1] [%]	cell viability, [2] [%]	cell viability, [3] [%]	cell viability, [4] [%]	cell viability, [5] [%]	cell viability, [6] [%]	morphology score, [10]
1 nM	–	–	103	99.4	102	101	106	–
10 nM	–	–	105	103	108	104	98.8	–
100 nM	–	–	97	97.5	96.3	97.4	99.8	–
0.3 µM	102	106	–	–	–	–	–	0.15
1000 nM	–	–	96.8	101	90.5	104	97.6	–
3 µM	96	99	–	–	–	–	–	0.3
10 µM	77	75	–	–	–	–	–	0.26
10000 nM	–	–	81	53.7	34.2	43.8	85.8	–
30 µM	65	67	–	–	–	–	–	0.43

drug-induced phospholipidosis [%], [9]
Details	0.3 µM	0.833333 µM	3.33333 µM	6.66667 µM	10 µM	30 µM
24 h	1.97	0.46	11	14.3	20.1	73.6
48 h	2.96	1.66	13.1	–	–	–
72 h	1.37	-1.51	4.02	–	–	–

Details	drug sensitivity score	relative viability EC50 [µM]
[11]	–	> 10
[13]	–	3.55
[14]	–	> 10
[15]	0.9	–
[16]	2.3	–
[17]	5.2	–
[18]	2.7	–
[19]	0.4	–
[20]	–	2.02
